According to the NIST ThermoML archive (doi:10.1021/acs.jced.6b00350):
Values joined by “and” are separate entries in the source; they are usually repeats but may differ in a detail not shown here. Equal values may be shown once.

Conditions: Liquid, Hot wire method

FC(F)CC(F)(F)F [1,1,1,3,3-pentafluoropropane]
Conditions | thermal conductivity
201.86 K, 21419 kPa | 0.124 W/m/K
201.86 K, 21433 kPa | 0.1239 W/m/K
201.87 K, 27158 kPa | 0.1248 W/m/K
202.1 K, 4763 kPa | 0.1206 W/m/K
202.12 K, 10088 kPa | 0.1217 W/m/K
202.12 K, 10097 kPa | 0.1218 W/m/K
202.15 K, 15804 kPa | 0.1229 W/m/K
202.15 K, 15839 kPa | 0.1229 W/m/K
202.2 K, 267 kPa | 0.1193 W/m/K
202.2 K, 275 kPa | 0.1195 W/m/K
202.2 K, 21408 kPa | 0.1237 W/m/K
202.2 K, 21420 kPa | 0.1237 W/m/K
202.21 K, 27161 kPa | 0.1249 W/m/K
202.23 K, 27677 kPa | 0.1252 W/m/K
202.24 K, 27673 kPa | 0.1255 W/m/K
202.24 K, 33666 kPa | 0.1267 W/m/K
202.24 K, 33675 kPa | 0.1266 W/m/K
202.26 K, 40147 kPa | 0.1279 W/m/K
202.26 K, 40151 kPa | 0.1278 W/m/K
202.27 K, 46773 kPa | 0.129 W/m/K
202.27 K, 46779 kPa | 0.1291 W/m/K
202.27 K, 53774 kPa | 0.1304 W/m/K
202.28 K, 53774 kPa | 0.1304 W/m/K
202.28 K, 60672 kPa | 0.1313 W/m/K
202.28 K, 60684 kPa | 0.1319 W/m/K
202.29 K, 67566 kPa | 0.1328 W/m/K
202.29 K, 67588 kPa | 0.1327 W/m/K
202.48 K, 4763 kPa | 0.1205 W/m/K
202.49 K, 10097 kPa | 0.1216 W/m/K
202.49 K, 10103 kPa | 0.1216 W/m/K
202.52 K, 15780 kPa | 0.1229 W/m/K
202.52 K, 15825 kPa | 0.1229 W/m/K
202.57 K, 21412 kPa | 0.1238 W/m/K
202.57 K, 21416 kPa | 0.1237 W/m/K
202.57 K, 27164 kPa | 0.1249 W/m/K
202.58 K, 275 kPa | 0.1195 W/m/K
202.58 K, 288 kPa | 0.1194 W/m/K
202.59 K, 27679 kPa | 0.1253 W/m/K
202.59 K, 27683 kPa | 0.1253 W/m/K
202.59 K, 33679 kPa | 0.1264 W/m/K
202.6 K, 33675 kPa | 0.1265 W/m/K
202.61 K, 40142 kPa | 0.1278 W/m/K
202.62 K, 40147 kPa | 0.1278 W/m/K
202.62 K, 46778 kPa | 0.129 W/m/K
202.62 K, 46780 kPa | 0.1289 W/m/K
202.62 K, 53770 kPa | 0.1302 W/m/K and 0.1303 W/m/K
202.63 K, 60672 kPa | 0.1318 W/m/K
202.63 K, 60673 kPa | 0.1317 W/m/K
202.63 K, 67539 kPa | 0.1325 W/m/K
202.63 K, 67552 kPa | 0.1327 W/m/K
202.89 K, 4767 kPa | 0.1203 W/m/K
202.89 K, 4772 kPa | 0.1204 W/m/K
202.9 K, 10110 kPa | 0.1216 W/m/K
202.92 K, 15810 kPa | 0.1227 W/m/K
202.92 K, 15863 kPa | 0.1227 W/m/K
202.97 K, 21416 kPa | 0.1236 W/m/K
202.97 K, 21421 kPa | 0.1236 W/m/K
202.97 K, 27152 kPa | 0.1247 W/m/K
202.97 K, 27157 kPa | 0.1247 W/m/K
202.98 K, 27682 kPa | 0.1253 W/m/K
202.98 K, 33690 kPa | 0.1266 W/m/K
202.99 K, 306 kPa | 0.1193 W/m/K
202.99 K, 337 kPa | 0.1194 W/m/K
202.99 K, 27679 kPa | 0.1252 W/m/K
202.99 K, 33685 kPa | 0.1265 W/m/K
203 K, 40148 kPa | 0.1278 W/m/K
203 K, 46783 kPa | 0.1289 W/m/K and 0.129 W/m/K
203 K, 53771 kPa | 0.1302 W/m/K
203 K, 53775 kPa | 0.1301 W/m/K
203 K, 60661 kPa | 0.1314 W/m/K
203 K, 60670 kPa | 0.1314 W/m/K
203 K, 67499 kPa | 0.1327 W/m/K
203 K, 67521 kPa | 0.1326 W/m/K
203.01 K, 40146 kPa | 0.1276 W/m/K
203.32 K, 4769 kPa | 0.1202 W/m/K
203.32 K, 4775 kPa | 0.1202 W/m/K
203.33 K, 10125 kPa | 0.1214 W/m/K
203.33 K, 10131 kPa | 0.1214 W/m/K
203.34 K, 15898 kPa | 0.1226 W/m/K
203.35 K, 15840 kPa | 0.1227 W/m/K
203.39 K, 27154 kPa | 0.1246 W/m/K
203.39 K, 27157 kPa | 0.1243 W/m/K
203.4 K, 21419 kPa | 0.1235 W/m/K
203.4 K, 33699 kPa | 0.1263 W/m/K
203.4 K, 67478 kPa | 0.1323 W/m/K
203.41 K, 27689 kPa | 0.1252 W/m/K
203.41 K, 33685 kPa | 0.1264 W/m/K
203.41 K, 46771 kPa | 0.1289 W/m/K
203.41 K, 46773 kPa | 0.1287 W/m/K
203.41 K, 53771 kPa | 0.1302 W/m/K
203.41 K, 53772 kPa | 0.1301 W/m/K
203.41 K, 60658 kPa | 0.1313 W/m/K
203.41 K, 60664 kPa | 0.1315 W/m/K
203.41 K, 67491 kPa | 0.1325 W/m/K
203.42 K, 40141 kPa | 0.1277 W/m/K
203.42 K, 40147 kPa | 0.1276 W/m/K
203.43 K, 372 kPa | 0.119 W/m/K
203.43 K, 393 kPa | 0.1193 W/m/K
203.83 K, 67450 kPa | 0.1325 W/m/K
203.83 K, 67465 kPa | 0.1324 W/m/K
203.84 K, 53769 kPa | 0.13 W/m/K
203.84 K, 60649 kPa | 0.1313 W/m/K and 0.1311 W/m/K
203.85 K, 27696 kPa | 0.1251 W/m/K
203.85 K, 33690 kPa | 0.1263 W/m/K
203.85 K, 33700 kPa | 0.1263 W/m/K
203.85 K, 46765 kPa | 0.1288 W/m/K
203.85 K, 46774 kPa | 0.1288 W/m/K
203.85 K, 53757 kPa | 0.13 W/m/K
203.86 K, 27682 kPa | 0.125 W/m/K
203.86 K, 40135 kPa | 0.1275 W/m/K
203.86 K, 40141 kPa | 0.1276 W/m/K
221.72 K, 250 kPa | 0.1129 W/m/K
221.72 K, 251 kPa | 0.113 W/m/K
221.73 K, 4830 kPa | 0.1143 W/m/K
221.73 K, 4854 kPa | 0.1145 W/m/K
221.74 K, 10031 kPa | 0.1155 W/m/K
221.75 K, 10011 kPa | 0.1159 W/m/K
221.76 K, 15754 kPa | 0.1169 W/m/K
221.76 K, 15760 kPa | 0.1169 W/m/K
221.77 K, 21259 kPa | 0.1183 W/m/K
221.77 K, 21264 kPa | 0.1188 W/m/K
221.78 K, 27420 kPa | 0.1202 W/m/K
221.78 K, 27443 kPa | 0.1204 W/m/K
222 K, 39755 kPa | 0.1236 W/m/K
222 K, 39756 kPa | 0.1236 W/m/K
222 K, 47190 kPa | 0.1252 W/m/K
222.01 K, 47202 kPa | 0.1258 W/m/K
222.01 K, 54322 kPa | 0.1269 W/m/K
222.01 K, 54323 kPa | 0.1269 W/m/K
222.02 K, 61325 kPa | 0.1285 W/m/K
222.02 K, 61363 kPa | 0.1286 W/m/K
222.02 K, 67941 kPa | 0.1302 W/m/K
222.02 K, 67960 kPa | 0.13 W/m/K
222.09 K, 253 kPa | 0.1125 W/m/K
222.09 K, 4859 kPa | 0.1139 W/m/K
222.09 K, 4863 kPa | 0.1139 W/m/K
222.1 K, 247 kPa | 0.1124 W/m/K
222.11 K, 10038 kPa | 0.1155 W/m/K
